Patent US20040152868A1, “Compositions and methods for modulating guanylyl cyclase signaling receptor (gc-c) activity and for treating meniere's disease” (priority 2001, published 2004)
Like-named read-outs stand apart in the source and are kept apart here. Bridge positions count the residues as written; N and C are the ends. Square brackets hold non-standard residues; d marks the D form. Ends that are not written are not given here. Peptide text beside a SMILES is read from it. 2Nal = N[C@@H](Cc1ccc2ccccc2c1)C(=O)O

How the values were obtained:
[1] = biological target: T1, guanylyl cyclase (GC-C) receptor (Homo sapiens, UniProt P25092); assay: cGMP-efficacy on T84 cells (stimulation of cGMP formation); format: cell-based; details: cGMP formation in T84 cells; for EC50: efficacy assay of Example 1
T1 construct: stimulation of cGMP in T84 cell cultures may be used as an efficacy assay; endogenous in cells; host or cells: T84 (human colon carcinoma cell line)
T1 sequence (P25092 24-1073): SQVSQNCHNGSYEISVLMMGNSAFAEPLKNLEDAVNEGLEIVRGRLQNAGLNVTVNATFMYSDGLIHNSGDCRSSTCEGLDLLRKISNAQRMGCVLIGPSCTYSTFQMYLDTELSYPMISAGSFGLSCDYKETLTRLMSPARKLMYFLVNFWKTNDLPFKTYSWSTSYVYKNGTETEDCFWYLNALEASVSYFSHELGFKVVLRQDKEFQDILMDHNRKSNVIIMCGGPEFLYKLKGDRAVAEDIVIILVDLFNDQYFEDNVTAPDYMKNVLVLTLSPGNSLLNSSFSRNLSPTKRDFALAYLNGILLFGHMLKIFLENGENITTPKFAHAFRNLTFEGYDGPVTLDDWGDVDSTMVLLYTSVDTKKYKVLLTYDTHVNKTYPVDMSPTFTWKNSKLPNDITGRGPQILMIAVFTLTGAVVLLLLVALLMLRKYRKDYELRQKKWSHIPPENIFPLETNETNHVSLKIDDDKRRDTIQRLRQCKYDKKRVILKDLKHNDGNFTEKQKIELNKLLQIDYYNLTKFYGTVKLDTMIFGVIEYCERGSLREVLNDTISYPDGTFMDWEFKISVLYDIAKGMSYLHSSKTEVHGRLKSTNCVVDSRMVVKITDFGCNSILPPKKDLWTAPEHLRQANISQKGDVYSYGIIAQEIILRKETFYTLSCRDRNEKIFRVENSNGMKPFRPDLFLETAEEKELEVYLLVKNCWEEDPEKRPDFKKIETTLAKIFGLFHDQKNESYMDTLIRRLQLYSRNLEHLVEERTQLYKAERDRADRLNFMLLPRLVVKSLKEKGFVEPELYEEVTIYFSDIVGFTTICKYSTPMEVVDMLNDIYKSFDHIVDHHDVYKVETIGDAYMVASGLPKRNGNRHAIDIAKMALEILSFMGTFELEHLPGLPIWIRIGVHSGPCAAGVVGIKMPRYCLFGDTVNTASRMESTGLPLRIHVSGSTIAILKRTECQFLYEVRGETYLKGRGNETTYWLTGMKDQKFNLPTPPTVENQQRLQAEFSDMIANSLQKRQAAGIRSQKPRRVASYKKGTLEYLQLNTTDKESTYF
Protocol: T84 cells are grown to near confluence in DMEM medium and Ham's F-12 medium (1:1) supplemented with 5% Foetal Calf Serum (FCS), […] in 175 cm^2 culture flasks (Nunc) at 37° C., 5% CO2 and 100% humidity. Cells are harvested in ice-cold PBS and centrifuged at 100×G for 10 min at 4° C. The sedimented cells are lysed in 2.5 ml dist. H2O/culture flask at 0° C. for 30 min and centrifuged at 50,000×G 4° C. for 45 min. The membrane pellet is taken up in binding buffer (50 mM HEPES, 1 mM EDTA, 10 mM MgCl2, pH 7.4) supplemented with 10% sucrose and stored at −80° C. until use.
For stimulation of cGMP formation, cells are seeded in 96-well microtiter plates (Nunc) at a density of 2500 cells/well (˜7576 cells/cm^2) and grown for 3 days before use under the same culture conditions mentioned above.
On the day of analysis growth medium is removed and the T84 cells are washed twice in Dulbeccos Phosphate Buffered Saline™ (D-PBS) containing 6 mM glucose at 37° C. Cells are then incubated at 37° C. for 40 min in the same medium supplemented with 2 mM IBMX (a phosphodiesterase inhibitor) and increasing concentrations of test compounds. The reaction is stopped by addition of ice-cold 20 μl 0.50 M HCl and incubation on ice for further 20 min. 20 μl of the acid extract is used for determination of cGMP by the FlashPlate™ technique and another 20 μl is used for determination of protein content.
Data from the cGMP experiments are treated in an analogueous way and fitted to:
f=(cGMPmax−cGMPbasic)*s/(s+EC50)+cGMPbasic
where cGMPmax is maximal obtainable cGMP and cGMPbasic is the basic level of cellular cGMP. EC50 is the concentration giving half maximum effect and s the concentration of test compound. […]

[2] = biological target: T1, guanylyl cyclase (GC-C) receptor; details: T84 cells, reported values; cited from earlier work
[3] = otoacoustic emission (DP-gram) in rats after 14 days i.p. infusion; format: in vivo, rat
Protocol: In this example, rats were given 8 nmol/kg/h of Compound 1 intraperitoneally for 14 days via Alzet osmotic pumps. Otoacoustic emissions were measured before treatment and at the end of treatment. Urine samples were collected during infusion, and the natriuretic effect of Compound 1 was measured by flame spectroscopy.
18 female Sprague-Dawley rats weighing 250 g each were divided into two groups. In total, 8 control animals received vehicle and 10 animals received COMPOUND 1. During the experiment the animals had free access to food and water.
Prior to the study COMPOUND 1 was dissolved in 50 mM phosphate buffer pH 4.0 containing 1% BSA and loaded into Alzet osmotic pumps. The pumps were then surgically inserted into the peritoneum of the rats administering 8 nmol/kg/h for 14 days. After insertion of the pumps the animals were placed in metabolic cages for a week, and samples of urine were collected every 24 hrs from Day 0 through Day 6.
The rats were all tested before the start of the study and at the end of the study. […]
The only DPOAE measured were the amplitude of cubic distortion product 2f1-f2, and always with the level of f1 (L1) 10 dB higher than the level of f2 (L2=L1-10 dB). The output of the ER-10B microphone was feed to a B&K (Nexus) amplifier and analysed on an HP 35670A spectrum. […]

[4] = rat, in vivo; cited from earlier work
[5] = standard diuresis assay / renal clearance in conscious rats with arterial pressure and heart rate recording; format: in vivo, rat
Protocol: Male Sprague-Dawley rats weighing 350-370 g (M&B, Denmark) were anaesthetized with a subcutaneous injection of 2 ml/kg of a 1:1 mixture of Hypnorm® (fentanyl citrate 0.315 mg/ml and fluanisone 10 mg/ml) and Dormicum® (midazolam 5 mg/ml) diluted 1:1 in distilled water. Permanent catheters were inserted into the femoral vein and artery. The i.v. line is used for i.v. infusion and the arterial line is used for continuous intra-arterial blood pressure recording and withdrawal of blood samples. A permanent supra-pubic catheter was inserted into the urinary bladder, which allowed fractionated urine collection and determination of urine flow rate. Animals were allowed about one week of recovery before they were used for experiments.
On the day of the experiment, the rat was placed in a lucid restrainer. […] To obtain a stable urine production under these conditions, the rat was slightly water loaded by i.v. infusion of a hypotonic glucose solution (150 mM glucose; 100 μl/min the first 15 min, then 25 μl/min throughout the experiment). The arterial line was connected to a pressure transducer (Baxter Truware: PX-260 Uden, Netherlands) and the pulsatile arterial blood pressure was amplified (×1.000-10.000) via a Hugo Sachs Electronic Tranducer Amplifier Module model 705/1. The analogue signal was digitalized via a 12 bit data acquisition board (Data Translation model DT321) and sampled at 1000 Hz using the Notocord HEM version 4 software for Windows NT. The systolic peak pressure triggered a software heart rate module that calculated heart rate beat-to-beat.
After a 60 minutes equilibration period, fractionated collection of urine was started (t=0). After 4 control periods (4×15 minutes), a bolus injection of Mouse-Guanylin-Asp—OH, 10 μmol/kg i.v was administered and collection of urine was collected in 15 minute periods for 3 hours (period […]). Urine volume was measured gravimetrically. The urine samples were stored at −20° C. until further analysis. Urine was analysed for sodium and potassium using a using a flame spectrophotometer (Instrumentation Laboratory, model IL 943).

With “Guanylin-Asp-Lys6-NH2 (rat/mouse) [Compound 12]” the “agonist character at GC-C” value [1] was “potent agonist”.

In the case of “uroguanylin (NDDCELCVNVACTGCL; ends and bridges not checked; cysteine pairing not given here; UniProt Q16661 97-112, looked up) [synthetic uroguanylin, member of the guanylin peptide family]”, the “increase in cGMP production reported” value [2] is given as 300 fold.

For `CC[C@H](C)[C@@H]1NC(=O)[C@H](CCC(=O)O)NC(=O)[C@@H](NC(=O)[C@@H](NC(=O)[C@H](CC(N)=O)NC(=O)[C@@H]2CCCN2)[C@@H](C)O)CSSC[C@@H]2NC(=O)[C@H](C)NC(=O)[C@H](C)NC(=O)[C@H](Cc3ccc(O)cc3)NC(=O)[C@H](C)NC(=O)[C@H](CSSC[C@@H](C(N)=O)NC(=O)CNC(=O)[C@H]([C@@H](C)O)NC2=O)NC1=O` [Compound 1, Mouse-Guanylin-NH2, H-PNTC*EICAYAAC*TGC-NH2 (double oxidised C to C and C* to C*)] (H-PNTCEICAYAACTGC-NH2; disulfide 4-12, 7-15), the “otoacoustic emission at 14 to 16 kHz” value ([3]; 8 nmol/kg/h intraperitoneally for 14 days via Alzet osmotic pumps) was “significant decrease”, the “change in otoacoustic emission from before to after treatment (2-way ANOVA)” value ([3]; 14 days, most pronounced at the 14 kHz level) was “significant decrease” and the EC50 ([1]; read-out: EC50) was 6.1 µM.

`CC[C@H](C)[C@@H]1NC(=O)[C@H](CCC(=O)O)NC(=O)[C@@H](NC(=O)[C@@H](N)[C@@H](C)O)CSSC[C@@H]2NC(=O)[C@H](C)NC(=O)[C@H](C)NC(=O)[C@H](Cc3ccc(O)cc3)NC(=O)[C@H](C)NC(=O)[C@H](CSSC[C@@H](C(=O)N[C@@H](CC(C)C)C(=O)N[C@@H](CCCCN)C(=O)N[C@@H](CCCCN)C(N)=O)NC(=O)CNC(=O)[C@H]([C@@H](C)O)NC2=O)NC1=O` [Compound 8, des-Pro^1, des-Asn^2Guanylin-LKK-NH2 fully oxidised(1-3, 2-4) (rat/mouse): H-TCEICAYAACTGCLKK-NH2 oxidised(1-3, 2-4)] (H-TCEICAYAACTGCLKK-NH2; disulfide 2-10, 5-13) gave an EC50 ([1]; read-out: EC50) of 29 µM.

In the case of “guanylin (PGTCEICAYAACTGC; ends and bridges not checked; cysteine pairing not given here; UniProt Q02747 101-115, looked up)”, the “diuretic, natriuretic and kaliuretic effect” value [4] is given as “substantial diuretic, natriuretic and kaliuretic effect” and the “increase in cGMP production reported” value [2] is given as 300 fold.

`CC[C@H](C)[C@@H]1NC(=O)[C@H](CCC(=O)O)NC(=O)[C@@H](NC(=O)[C@@H](N)[C@@H](C)O)CSSC[C@@H]2NC(=O)[C@H](C)NC(=O)[C@H](C)NC(=O)[C@H](Cc3ccccc3)NC(=O)[C@H](C)NC(=O)[C@H](CSSC[C@@H](C(=O)N[C@@H](CC(C)C)C(N)=O)NC(=O)CNC(=O)[C@H]([C@@H](C)O)NC2=O)NC1=O` [Compound 5, des-Pro^1, des-Asn^2[Phe^9]Guanylin-L-NH2 (rat/mouse)] (H-TCEICAFAACTGCL-NH2; disulfide 2-10, 5-13 (inferred)) gave an EC50 ([1]; read-out: EC50) of 28 µM.

For Mouse-Guanylin-Asp-OH [Compound 13], the “effect on heart rate” value ([5]; conscious rats, 10 μmol/kg i.v.) was “no effect”, the “increase in mean arterial blood pressure” value ([5]; conscious rats, 10 μmol/kg i.v. bolus, immediate and sustained) was 15-20 mmHg and the “effect on urinary potassium excretion rate” value ([5]; rats, 10 μmol/kg i.v.) was “rapid and transient increase”. The “effect on urinary sodium excretion rate” value ([5]; rats, 10 μmol/kg i.v.) was “immediate and sustained increase” and the “effect on urine flow rate” value ([5]; rats, 10 μmol/kg i.v.) was “rapid and transient increase”.

In the case of “Cyclo(Gly-Glu-Ile-Gly-Ala-Tyr-Ala-Ala-Gly-Thr-Gly-Gln-) (GEIGAYAAGTGQ; cyclic; printed: Gly-Glu-Ile-Gly-Ala-Tyr-Ala-Ala-Gly-Thr-Gly-Gln-) [Compound 4]”, the EC50 [1] is reported as “No effect”.

For “des-Pro^1, des-Asn^2Guanylin-LKK-NH2 mono oxidised(1-3) (rat/mouse) [Compound 7]”, the EC50 [1] was “No effect”.

With “SPNFIWK [Compound 3, H-Ser-Pro-Asn-Phe-Ile-Trp-Lys—NH2]” the EC50 [1] was “No effect”.

Work on `CC[C@H](C)[C@@H]1NC(=O)[C@H](CCC(=O)O)NC(=O)[C@@H](NC(=O)[C@@H](N)[C@@H](C)O)CSSC[C@@H]2NC(=O)[C@H](C)NC(=O)[C@H](C)NC(=O)[C@H](Cc3ccc4ccccc4c3)NC(=O)[C@H](C)NC(=O)[C@H](CSSC[C@@H](C(=O)N[C@@H](CC(C)C)C(N)=O)NC(=O)CNC(=O)[C@H]([C@@H](C)O)NC2=O)NC1=O` [Compound 6, des-Pro^1, des-Asn^2[2-Nal^9]Guanylin-L-NH2 (rat/mouse)] (H-TCEICA[2Nal]AACTGCL-NH2; disulfide 2-10, 5-13) yielded an EC50 ([1]; read-out: EC50) of over 100 µM.
